ChEMBL document CHEMBL2439966, “Development of novel ferulic acid derivatives as potent histone deacetylase inhibitors” (Bioorg Med Chem, 2013)

Columns and labels:
[1] = tested on: HeLa; experiment: cells; format: functional, cell-based; conditions: Homo sapiens, 48 h
Description: Growth inhibition of human HeLa cells after 48 hrs by MTT assay

[2] = tested on: MCF7; experiment: cells; format: functional, cell-based; conditions: Homo sapiens, MCF7, 48 h
Description: Growth inhibition of human MCF7 cells after 48 hrs by MTT assay

[3] = biological target: Histone deacetylase; experiment: Inhibition of HDAC in human HeLa cell nuclear extracts using Color de LysTM after 30 mins; format: protein assay
[4] = tested on: MDA-MB-231; experiment: cells; format: functional, cell-based; conditions: Homo sapiens, MDA-MB-231, 48 h
Description: Growth inhibition of human MDA-MB-231 cells after 48 hrs by MTT assay

COc1cc(/C=C/C(=O)Nc2ccc(C)cc2N)ccc1OCC(=O)Nc1cc(Br)cc(C(F)(F)F)c1 gave an IC50 [1] of 84.3 µM, an IC50 [2] of 92.1 µM and an IC50 [3] of 7.43 µM. The IC50 [4] was over 100 µM.

COc1cc(/C=C/C(=O)NO)ccc1OCC(=O)Nc1ccc(F)c(Cl)c1 was tested, and the IC50 [3] was 49.3 µM.

In the case of COc1cc(/C=C/C(=O)NO)ccc1OCC(=O)Nc1cccc(C(F)(F)F)c1, the IC50 [3] is reported as 12.5 µM.

In the case of COc1cc(/C=C/C(=O)NO)ccc1OCC(=O)Nc1ccc(Cl)c(Cl)c1, the IC50 [3] is reported as 43 µM.

For COc1ccc(NC(=O)COc2ccc(/C=C/C(=O)NO)cc2OC)cc1, the IC50 [3] was 10.8 µM.

With COc1cc(/C=C/C(=O)NO)ccc1OCC(=O)Nc1ccc(Br)cc1 the IC50 [1] was over 100 µM, the IC50 [2] was 73.6 µM and the IC50 [3] was 8.43 µM. For the same molecule, the IC50 [4] was 0.76 µM.

For COc1cc(/C=C/C(=O)NO)ccc1OCC(=O)Nc1ccccc1F, the IC50 [1] was 11.1 µM, the IC50 [2] was over 100 µM and the IC50 [3] was 3.94 µM. For the same molecule, the IC50 [4] was 8.3 µM.

With COc1cc(/C=C/C(=O)NO)ccc1OCC(=O)Nc1cccc(F)c1 the IC50 [1] was 34.5 µM, the IC50 [2] was 39.5 µM and the IC50 [3] was 9.47 µM. For the same molecule, the IC50 [4] was 1.45 µM.

With COc1cc(/C=C/C(=O)NO)ccc1OCC(=O)Nc1cc(C(F)(F)F)cc(C(F)(F)F)c1 the IC50 [3] was 10.5 µM.

For COc1cc(/C=C/C(=O)NO)ccc1OCC(=O)Nc1cc(Br)cc(C(F)(F)F)c1, the IC50 [3] was 67.8 µM.

COc1cc(/C=C/C(=O)Nc2ccccc2N)ccc1OCC(=O)Nc1ccc(F)c(Cl)c1 showed an IC50 [3] of 11.5 µM.

COc1cc(/C=C/C(=O)Nc2ccccc2N)ccc1OCC(=O)Nc1cccc(C(F)(F)F)c1 showed an IC50 [3] of 49.6 µM.

COc1cc(/C=C/C(=O)Nc2ccccc2N)ccc1OCC(=O)Nc1ccc(Cl)c(Cl)c1 was tested, and the IC50 [1] was 72.1 µM, the IC50 [2] was over 100 µM and the IC50 [3] was 10.3 µM. It also gave an IC50 [4] of 83.4 µM.

COc1ccc(NC(=O)COc2ccc(/C=C/C(=O)Nc3ccccc3N)cc2OC)cc1 showed an IC50 [1] of over 100 µM, an IC50 [2] of over 100 µM and an IC50 [3] of 8.95 µM. The IC50 [4] was 48.5 µM.

For COc1cc(/C=C/C(=O)Nc2ccccc2N)ccc1OCC(=O)Nc1ccc(Br)cc1, the IC50 [3] was 12.8 µM.

Molecule COc1cc(/C=C/C(=O)Nc2ccccc2N)ccc1OCC(=O)Nc1ccccc1F has an IC50 [3] of 73.7 µM.

For COc1cc(/C=C/C(=O)Nc2ccccc2N)ccc1OCC(=O)Nc1cccc(F)c1, the IC50 [1] was 28.1 µM, the IC50 [2] was over 100 µM and the IC50 [3] was 2.82 µM. It also gave an IC50 [4] of over 100 µM.

For COc1cc(/C=C/C(=O)Nc2ccccc2N)ccc1OCC(=O)Nc1cc(C(F)(F)F)cc(C(F)(F)F)c1, the IC50 [1] was 20.8 µM, the IC50 [2] was 43.1 µM and the IC50 [3] was 7.8 µM. It also gave an IC50 [4] of 25.3 µM.

COc1cc(/C=C/C(=O)Nc2ccccc2N)ccc1OCC(=O)Nc1cc(Br)cc(C(F)(F)F)c1 gave an IC50 [3] of 24.2 µM.

Work on COc1cc(/C=C/C(=O)Nc2ccc(C)cc2N)ccc1OCC(=O)Nc1ccc(F)c(Cl)c1 yielded an IC50 [3] of 15.4 µM.

Work on COc1cc(/C=C/C(=O)Nc2ccc(C)cc2N)ccc1OCC(=O)Nc1cccc(C(F)(F)F)c1 yielded an IC50 [3] of 15.1 µM.

With COc1cc(/C=C/C(=O)Nc2ccc(C)cc2N)ccc1OCC(=O)Nc1ccc(Cl)c(Cl)c1 the IC50 [3] was 64.5 µM.

Molecule COc1ccc(NC(=O)COc2ccc(/C=C/C(=O)Nc3ccc(C)cc3N)cc2OC)cc1 has an IC50 [3] of 118 µM.

For COc1cc(/C=C/C(=O)Nc2ccc(C)cc2N)ccc1OCC(=O)Nc1ccc(Br)cc1, the IC50 [3] was 16.4 µM.

Work on COc1cc(/C=C/C(=O)Nc2ccc(C)cc2N)ccc1OCC(=O)Nc1ccccc1F yielded an IC50 [3] of 11.6 µM.

COc1cc(/C=C/C(=O)Nc2ccc(C)cc2N)ccc1OCC(=O)Nc1cccc(F)c1 was tested, and the IC50 [3] was 66.6 µM.

With COc1cc(/C=C/C(=O)Nc2ccc(C)cc2N)ccc1OCC(=O)Nc1cc(C(F)(F)F)cc(C(F)(F)F)c1 the IC50 [3] was 71.4 µM.
